Measured values taken from PMC11411626 (2024).

Columns and labels:
[1] = system: CAG RNA oligonucleotide (RNA, repeat) GCAGCAGCUUCGGCAGCAGC; experiment: fluorescence well-plate screening; settings: buffer pH 7, 5 μM ligand, 1 equiv. RNA
[2] = system: CUG RNA motif (RNA, repeat) GGUCGCUGCUGCACGAAAGUGCUGCUGCGACC; experiment: fluorescence well-plate screening; settings: buffer pH 7, 5 μM ligand, 1 equiv. RNA
[3] = system: CAG RNA oligonucleotide (RNA, repeat) GCAGCAGCUUCGGCAGCAGC; experiment: spectrophotometric titration; settings: 2a 5 μM, RNA/2a 0–4; SpecFit 1:1 fit
[4] = no pronounced interaction, small fluorescence change

COc1cc(/C=C2\Nc3ccccc3C2=O)ccc1OCCCN(C)C was tested, and the binding [1] was “no”.
COc1ccc(/C=C2\Oc3cc(OCCN(C)C)ccc3C2=O)cc1 was tested, and the binding [1, 4] was “no”.
For O=C1/C(=C/c2c3ccccc3cc3ccccc23)Oc2ccccc21, the binding ([1]; 21% light-up, aggregation prevented titration) was “yes” and the binding ([2]; excitation 450 nm, almost no interaction) was “no”.
For N=C(N)c1ccc(-c2ccc(-c3ccc(C(=N)N)cc3)o2)cc1, the binding ([1]; 57% quenching) was “yes”.
In the case of CN(C)CCOc1ccc(/C=C2\Oc3cc(O)ccc3C2=O)cc1, the binding [1, 4] is reported as “no”.
For CN(C)CCOc1ccc(/C=C2\Oc3cc(OCCN(C)C)ccc3C2=O)cc1, the K [3] was “(1.4 ± 0.1) × 10^5 M^-1” and the binding ([2]; absent or very weak interaction) was “no”.
For COc1ccc(/C=C2\Oc3ccccc3C2=O)cc1, the binding [1] was “no”.
